{
  "source": "patent US20110263451A1",
  "about": "“BIOLOGICAL MARKERS PREDICTIVE OF RHEUMATOID ARTHRITIS RESPONSE TO LYMPHOTOXIN ANTAGONISTS” (GENENTECH, INC, priority 2008, published 2011)",
  "tested_on": "human CD4′ Th1 cells",
  "assay": "TAPI-1 effect on soluble cytokines shed into culture supernatant of re-activated Th1 cells",
  "assay_type": "cell-based",
  "description": "High Bind 96-well microtiter plates (Meso Scale Discovery (MSD), Gaithersburg, Md.) were spotted with 5 uL goat anti-human LTα clone AF211 (R&D Systems) diluted in PBS/0.05% Tween 20 (PBS/Tween) to 2 μg/ml, and incubated for one hour at room temperature. Wells were blocked with 150 uL PBS+5% BSA for 1-2 hours with agitation. Plates were washed 6× with PBS/Tween and a titration curve of recombinant human LTα3 (Genentech Inc.) controls, and test samples diluted in high salt assay diluent (HSAD: PBS, 0.5% BSA, 0.05% Tween 20, 0.25% CHAPS, 5 mM EDTA, 0.20% BgG, 0.35M NaCl, 10% FBS) were added at 25 μl/well and incubated for 2 hours with agitation. […] Plates were washed, 500 ng/mL Strepavidin-Sulgo-TAG® (MSD) diluted in AD was added at 25 μL/well, and plates were incubated for 30 minutes with agitation. Plates were washed with PBS/Tween 6×, and 150 μl/well of Read Buffer T (MSD) diluted 1:2 in H20 was added to wells. Plates were read on an MA6000 Sector™ Imager (MSD) according to manufacturer's. A weighted 4-parameter fit standard curve was plotted using XLFit (Guildford, UK) and values of unknowns were extrapolated.\nSoluble human TNF-α, was detected using a human 96-well TNF-α kit (K111BHA-4, Meso Scale Discovery) according to manufacturer's instructions.\nTotal human CD4^+ T cells were isolated from PBMC with a CD4^+ T cell isolation kit (Miltenyi Biotec). Cells were cultured in complete DMEM media (DMEM supplemented with 10% FBS, 2 mM glutamine, 2 μM 2-ME, 1 mM sodium pyruvate, 100 U/ml penicillin and 100 μg/ml streptomycin) in presence of 5 μg/ml anti-CD3 mAb and 2 μg/ml anti-CD28 mAb. Human Th subset polarization conditions were as follows: Th0: 5 μg/ml anti-hIL-12, 5 μg/ml anti-hIFN-γ 1 μg/ml anti-hIL-4; Th1: 1 ng/ml rhIL-12, 10 ng/ml rhIFN-γ, 1 μg/ml anti-hIL-4; Th2: 5 ng/ml rhIL-4, 5 μg/ml anti-hIL-12, 6 μg/ml anti-hIFN-γ; Th17: 10 ng/ml rhIL-23, 10 μg/ml anti-hIL-12, 10 μg/ml anti-hIFN-γ. T cells were re-stimulated with 5 μg/mL anti-CD3 and 2 μg/mL anti-CD28 with indicated amount of TNFα protease inhibitor 1 (TAPI-1) (Peptides International) or DMSO as control.\nAt day1 and day2 after re-stimulation, cells were collected for FACS and RNA preparation; culture supernatants were collected for LT and TNF-α quantitation.\nTo determine if LTαβ complexes were shed by metalloproteinase cleavage, the TNFα protease inhibitor 1 (TAPI-1), known to inhibit the cleavage of TNFα by ADAM17 protease, was tested on human CD4′ Th1 cells. Culture supernatants were analyzed for solLTαβ, LTα3 and TNFα one day post re-activation in the presence or absence of TAPI-1 (FIGS. 2A & B). T cells were collected, cultured and polarized as in Example 2 above.",
  "key": {"[1]": {"details": "Th1 cells, 10 or 50 μM TAPI-1, 1 day post re-activation"}},
  "data": [
    {"compound": "CC(C)C[C@H](CC(=O)NO)C(=O)N[C@@H](Cc1ccc2ccccc2c1)C(=O)N[C@@H](C)C(=O)NCCN", "note": "[TAPI-1]", "values": [
      {"measurement": "increase in cell surface LT", "setting": "TAPI-1 treated Th1 cells, FACS, data not shown", "value": "not accompanied by an increase in cell surface LT"},
      {"measurement": "decrease of shed TNFα supernatant concentrations", "setting": "[1]", "value": "3-8 fold"},
      {"measurement": "secreted LTα3 in supernatant", "setting": "[1]", "value": "not affected"},
      {"measurement": "decrease of soluble LTαβ levels in supernatants of re-activated cells", "setting": "Th1 cells, 10 or 50 μM TAPI-1, 1 day post re-activation, dose dependent", "value": "2-7 fold"}
    ]}
  ]
}
